Experimental data as given in patent US20240118281A1, “ANTICANCER COMPOUNDS AND USES THEREOF” (University of Florida Research Foundation, Incorporated, priority 2021, published 2024).

Key:
Caspase 8 = Caspase 8 cleavage/activation (CC8), immunoblot; assay type: cell-based; details: 24 h
Description: The BT20, BT474, BT549, MCF7, MDA-MB-231, MDA-MB-436, MDA-MB-468, HCC1143, HCC1500, HCC1569, HCC1937, HCC1954, Hs578t, and T47D cells lines were purchased from American Type Culture Collection (ATCC) (Manassas, VA). The HCI-001 cell line was derived from an ER-/PR-/HER2- patient-derived xenograft originally isolated from a patient as described previously (DeRose Y S, et al. Nat Med 2011; 17: 1514-1520). The HCI-001/LVM2 model was derived from the HCI-001 cell line by performing two rounds of selection for liver metastasis, as described previously (Wang M, et al. Cell Death Discovery 2019; 5: 153). Cell lines were grown in Dulbecco's Modified Eagle's Medium (GE Healthcare Life Sciences, Logan, UT) containing 10% fetal bovine serum (10% FBS—DMEM) in a humidified incubator with 5% CO2 at 37° C. Cell lysates were prepared as described previously (Law B K, et al. Mol Cell Biol. 2002; 22: 8184-8198). […]
To assess protein disulfide bond-mediated oligomerization, cells were treated with DDAs for 24 h in 10% FBS-DMEM. […] Samples were subsequently analyzed by SDS-PAGE and immunoblot.

EGFR = assay: Disulfide bond-mediated oligomerization, non-reducing immunoblot; assay type: cell-based; details: MDA-MB-468 cells, 24 h, FIG. 1E right
Description: (§1) The BT20, BT474, BT549, MCF7, MDA-MB-231, MDA-MB-436, MDA-MB-468, HCC1143, HCC1500, HCC1569, HCC1937, HCC1954, Hs578t, and T47D cells lines were purchased from American Type Culture Collection (ATCC) (Manassas, VA). The HCI-001 cell line was derived from an ER-/PR-/HER2- patient-derived xenograft originally isolated from a patient as described previously (DeRose Y S, et al. Nat Med 2011; 17: 1514-1520). The HCI-001/LVM2 model was derived from the HCI-001 cell line by performing two rounds of selection for liver metastasis, as described previously (Wang M, et al. Cell Death Discovery 2019; 5: 153). Cell lines were grown in Dulbecco's Modified Eagle's Medium (GE Healthcare Life Sciences, Logan, UT) containing 10% fetal bovine serum (10% FBS—DMEM) in a humidified incubator with 5% CO2 at 37° C. Cell lysates were prepared as described previously (Law B K, et al. Mol Cell Biol. 2002; 22: 8184-8198). Immunoblot analysis was performed utilizing the following antibodies purchased from Cell Signaling Technology (Beverly, MA) [Akt, #4691; P-Akt[T308], #13038; ATF4, #11815; CHOP, #2895; Cleaved Caspase 8, #9496; DR4, #42533; DR5, #8074; EGFR, #4267; GRP78, #3177; HER3, #4754; PARP, #9532; PDIA1, #3501; XBP1s, #12782], from Santa Cruz Biotechnology (Santa Cruz, CA) [Actin, sc-47778; AGR2/3, sc-376653; AGR3, sc-390940; ERO1-a, sc-100805; and ERp44, sc-393687], or from Rockland Immunochemicals, Inc. (Limerick, PA), Streptavidin-Alkaline Phosphatase conjugated (SA-AP), S000-05.
(§2) To assess protein disulfide bond-mediated oligomerization, cells were treated with DDAs for 24 h in 10% FBS-DMEM. Cells were subsequently scraped directly into the media and pelleted by centrifugation. Cells were extracted directly into boiling 2×-SDS-Sample Buffer containing 100 mM NEM and boiled for 10 min. Samples were sonicated, followed by centrifugation for 20 min at room temperature. Samples were subsequently analyzed by SDS-PAGE and immunoblot.

DR4 = assay: as above; assay type: cell-based
Description: as §1, §2

[1] = system: HER2+ BT474 xenograft tumors; assay: BT474 xenograft tumor study, H&E staining of mammary fat pads/tumors; assay type: in vivo, mice; details: 20 mg/kg intraperitoneal, four consecutive days; vehicle tumors showed no necrosis
Experimental: Breast cancer liver metastasis was initiated in NOD-SCID-gamma (NSG) mice obtained from Jackson Laboratories (Bar Harbor, ME) by injecting 1×10^6 cancer cells into the #4 mammary fat pads as described previously (Wang M, et al. Cell Death Discovery 2019; 5: 153). Mice bearing HCI-001/LVM2 breast tumors were treated once daily for four consecutive days with 20 mg/kg tcyDTDO by oral gavage and livers were collected. Animals bearing HER2+ BT474 tumors were treated with the vehicle or 20 mg/kg dMtcyDTDO or dFtcyDTDO by intraperitoneal injection for four consecutive days. Tissue samples fixed in 4% paraformaldehyde/PBS and paraffin-embedded were sectioned and stained with hematoxylin and eosin (H&E) by the University of Florida Molecular Pathology Core (https://molecular.pathology.ufl.edu/).

AGR2 = molecular target: T1, AGR2 (Homo sapiens, UniProt O95994); assay: AGR2 dimer formation in stable cell lines, non-reducing immunoblot; assay type: cell-based; parameters: expressed in transfected cells; details: MDA-MB-468 stable cell lines, 5 μM, 24 h, FIG. 2F
T1 sequence (O95994 21-175): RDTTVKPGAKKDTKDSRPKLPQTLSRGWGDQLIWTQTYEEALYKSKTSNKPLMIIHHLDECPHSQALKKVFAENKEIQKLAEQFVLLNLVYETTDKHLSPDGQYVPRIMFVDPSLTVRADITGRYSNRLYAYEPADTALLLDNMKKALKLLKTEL
Experimental: as §2

ERAP1 = ERAP1 secretion in A431 skin cancer cells, immunoblot; assay type: cell-based; details: 5 μM, 24 h
MDA-MB-468 cells = assay: 3H-Leucine protein synthesis assay; assay type: cell-based; details: 24 h, FIG. 9A
Experimental: Protein synthesis assays utilizing ^3H-Leucine purchased from Perkin Elmer (Waltham, MA) were carried out as detailed previously (Law B K, et al. J Biol Chem 2000; 275: 10796-10801; Law B K, et al. J Biol Chem 2000; 275: 38261-38267).

AGR3 = molecular target: T2, AGR3 (Homo sapiens, UniProt Q8TD06); assay: DDA binding assay with AGR3; details: molar excess, pre-incubation with 600 μM, FIG. 2D
T2 construct: His6 (N); purchased ProSpec PRO-242
T2 sequence (Q8TD06 22-166): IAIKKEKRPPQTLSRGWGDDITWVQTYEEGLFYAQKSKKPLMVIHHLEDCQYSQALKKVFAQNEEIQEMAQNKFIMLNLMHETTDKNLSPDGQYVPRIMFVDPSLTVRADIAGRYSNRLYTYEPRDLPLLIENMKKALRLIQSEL
Experimental: Purified His6-AGR2 or His6-AGR2 C81S, as prepared above, or His6-AGR2 (PRO-580) or His6-AGR3 (PRO-242) obtained from ProSpec (New Brunswick NJ) were incubated with or without varying concentrations of the unlabeled DDA competitors, tcyDTDO or dMtcyDTDO, and 30 μM Biotin-GlyPyrDTDO or Biotin-PyrDTDO in buffer (20 mM HEPES (pH 7.4), 1 mM EDTA, 1 mM EGTA, 5% Glycerol, 1 nM Microcystin, 1 mM Na3VO4, and 40 mM Na2H2P2O7) containing 1% Triton-X 100 for 30 min at 37° C. […] Therefore, the two probes were used interchangeably. Reactions were stopped by boiling the samples in 2×-SDS-Sample Buffer containing 100 mM NEM for 10 min. Biotin-DDA labeling of protein was verified by blotting with Streptavidin-Alkaline Phosphatase (Rockland Immunochemicals, Inc., Limerick, PA). ERp44 (PRO-547) and PDIA1 (ENZ-262) were obtained from ProSpec and used in experiments examining the binding of these proteins to Biotin-PyrDTDO.

CO[C@H]1C[C@@H]2CS(=O)(=O)SC[C@H]2C[C@@H]1OC [dMtcyDTDO, dimethoxy-tcyDTDO]
Induction of Caspase 8 cleavage/activation (CC8) in ERp44 knockdown versus vector control cells (Caspase 8; MDA-MB-468 cells, 2.5 or 5 μM, FIG. 5D): increased dMtcyDTDO induction of Caspase 8 cleavage/activation | Caspase 8 cleavage in cells expressing C119S or C160S DR5 mutants (Caspase 8; MDA-MB-468 stable cell lines, FIG. 7E): modestly increased Caspase 8 cleavage | Concentration at which disulfide-mediated oligomerization of EGFR was detected (EGFR): 625 nM | Levels and oligomerization of DR4, densitometry (DR4; 0, 1.25, 2.5, 5 uM, FIG. 1F): increases DR4 oligomerization without affecting overall DR4 levels | Concentration at which disulfide-mediated oligomerization of DR4 was detected (DR4; MDA-MB-468 cells, 24 h, FIG. 1E right): 625 nM | DR4/5 oligomerization at the same concentration (DR4) (DR4; MDA-MB-468 cells, 24 h, compared with tcyDTDO, FIG. 1E left): more DR4/5 oligomerization | Tumors in mammary fat pads, H&E histology [1]: tumors that had undergone coagulation necrosis | AGR2 dimer formation in cells with enforced AGR2 expression (AGR2): blocked dimer formation by wild type AGR2 | ERAP1 levels in the culture medium (ERAP1; FIG. 4F upper): dramatically increased | ERAP1 secretion, statistical analysis (ERAP1; N=3, FIG. 4F lower): induced ERAP1 secretion in a statistically significant manner | Potency in protein synthesis assay relative to tcyDTDO (MDA-MB-468 cells): two-fold greater potency than tcyDTDO | Competition with Biotin-GlyPyrDTDO binding to AGR3 (AGR3): partially prevented Biotin-GlyPyrDTDO binding
